Key:
[1] = tested on: preformed R2R3 (V287I) fibrils; test: Elongation of preformed R2R3 (V287I) fibrils, ThT; assay type: biochemical; details: R2R3 V287I pre-aggregated 24 h, compound 10 μM
Method: Peptides were pre‐aggregated for 24 h with aggregation kinetics monitored by ThT fluorescence, after which 10 μM PUR or OLC was added, followed by an additional 24–30 h of incubation (Figure 4a). Aggregation kinetics was monitored by ThT fluorescence, and elongation was quantified as the AUC following compound addition, normalized to each replicate's maximum pre‐treatment fluorescence (Figure 4b). […] WT peptide fibril elongation was reduced to 15.5 ± 2.8% (PUR) and 45.2 ± 3.2% (OLC), and P301L peptide fibril elongation was limited to 31.8 ± 0.6% (PUR) and 85.6 ± 2.2% (OLC) (Figure 4b). Fluorescence microscopy imaging further confirmed the presence of reduced ThT‐positive aggregates following the addition of PUR and OLC (Figure S12). Similar inhibition trends, with PUR outperforming OLC, were also observed for V287I and N279K peptides (Figure S12).
Figure S13. […] (a) ThT fluorescence kinetics of pre-aggregated R2R3 (V287I and N279K ) tau peptides treated with PUR or OLC (10 µM). Peptides were first allowed to aggregate for 24 h, followed by compound addition and continued incubation for an additional 24-30 h. […] Curves are normalized to each replicate’s maximum pre-treatment ThT fluorescence. […] (b) Aggregation levels post-treatment, expressed as a percentage of control (untreated fibrils), calculated from the AUC after compound addition. […]

[2] = tested on: PHF6; parameters: method as in Viswanathan et al., [2020]; details: reduced efficacy at higher peptide:compound ratios such as 5:1; ref Viswanathan et al., [2020]; cited from earlier work
[3] = parameters: method as in Viswanathan et al., [2020]; details: in vitro studies; ref Viswanathan et al., [2020]; cited from earlier work
[4] = target: T1, R2R3 (WT) tau peptide (Homo sapiens, UniProt P10636); test: SPR titration cycle kinetics, immobilized R2R3 (WT) peptide; assay type: binding
T1 construct: Peptides spanning R2R3—including PHF6 and PHF6*; purchased ProteoGenix (Schiltigheim, France); host or cells: chemical synthesis (custom peptide)
Method: SPR experiments were conducted using the Sierra® SPR‐24 Pro system (Bruker Daltonics, Bremen, Germany), featuring a gold‐coated microfluidic array (24 detection spots, 3 × 8 format). Data acquisition and kinetic analysis were performed using SPR Analyzer 4 software.
All experiments were conducted at 25°C using PBS (pH 7.4) supplemented with 0.05% Tween‐20 and 5% DMSO as the running buffer to ensure assay reproducibility. Assay components, including 96‐well microtiter plates (Part # 1862984; Burker) and Microplate and Reservoir Sealer (Part #1862985; Burker), were used for sample handling and were compatible with the Sierra SPR®‐24 Pro system (Bruker Daltonics, Billerica, MA, USA).
WT and mutant (P301L, V287I, and N279K) tau peptides were dissolved in 10 mM sodium acetate buffer (pH 5.0; Burker) and immobilized onto High‐Capacity Amine Sensor Surfaces (Part #1862614; Bruker) using the Amine Coupling Kit (Part #1862634; Bruker). The sensor surface was preconditioned with a Surface Elution Buffer (Part #1862656; Bruker Daltonics) and 0.1M HCl to remove contaminants and improve binding specificity. […]
PUR and OLC were prepared in PBS (pH 7.4) supplemented with 0.05% Tween‐20 and 5% DMSO. Compound interactions with tau peptides were pre‐screened using a concentration range of 1–100 μM, and subsequent binding kinetics were evaluated at optimized concentrations. […] Each analyte was sequentially injected, and association and dissociation phases were monitored to determine kinetic parameters.
SPR binding kinetics were assessed using the titration cycle kinetics (TCK) assay, which included consecutive association phases followed by a single dissociation phase. […] A reference blank injection was included for double referencing, and a single dissociation curve was recorded for the highest analyte concentration.
Sensorgrams were analyzed using the Kinetic Titration model, which was integrated into the global kinetic fitting model of the SPR Analyzer 4 software. […]

[5] = tested on: CCRF-CEM (human leukemic lymphoblast) cells; test: MTS cytotoxicity assay, CCRF-CEM cells; assay type: cell-based; details: 0-100 µM, 72 h
Method: Figure S16. Cytotoxic activity of PUR and OLC. Tau Biosensor and CCRF-CEM (human leukemic lymphoblast) cells were treated with increasing concentrations (0-100 µM) of PUR and OLC for 72 h. Cell viability was then assessed using the MTS assay. CCRF-CEM (human leukemic lymphoblasts) cells, known for their high sensitivity to cytotoxic agents ^1, were used as positive controls. […] Calculated IC50 values are indicated in the graphs. Mean ± SEM (n = 3).

T1 sequence (P10636 592-653 limits assumed): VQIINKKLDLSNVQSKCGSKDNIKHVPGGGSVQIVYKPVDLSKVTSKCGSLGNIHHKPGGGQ

SMILES	elongation of preformed fibrils [1]	PHF6 aggregation inhibition [2]	BBB permeation [3]	koff ([4]; R2R3 WT)	kon ([4]; R2R3 WT)	Kd ([4]; R2R3 WT peptide immobilized, 25°C, PBS pH 7.4)	IC50 [5]
O=C1c2ccccc2C(=O)c2c(O)c(O)cc(O)c21 [PUR, purpurin]	inhibit the elongation	inhibits PHF6 aggregation	can permeate the BBB	0.000265 s⁻¹	61 M⁻¹ s⁻¹	4.35 µM	
C/C=C(/C=O)[C@@H](CC=O)CC(=O)OCCc1ccc(O)cc1 [OLC, oleocanthal]	inhibit the elongation						> 10 µM

Source: article PMC12381781, “Structural and functional insights into the selective inhibition of mutant tau aggregation by purpurin and oleocanthal in frontotemporal dementia” (Protein Science : A Publication of the Protein Society, 2025)
